Data set [1] concerns the target T1, SpCas9 (Streptococcus pyogenes serotype M1, UniProt Q99ZW2). Description: Inhibition of SpCas9 nuclease activity in EGFP/iCas9/gRNA-EGFP reporter 293T cells (flow cytometry). Also noted: expressed in transfected cells; host or cells: H2AX-EGFP HEK293T cells, lentiviral transduction, doxycycline-induced. The format is cell-based. The source says: The H2AX-EGFP 293T cell line was first generated using the previously reported MMEJ-mediated CRIS-PITCh system. Briefly, we cloned two gRNAs (Supplementary Table S3) that respectively target H2AX gene and the PITCh vector into the px330 plasmid (Addgene, #42230). The PITCh vector contains a pair of 20-bp homologous sequences targeting the upstream and downstream regions of the H2AX gRNA cleavage site, and the SFB-EGFP expression cassette. The three plasmids were co-transfected into 293T cells at an equimolar ratio. GFP-positive cells were sorted by FACS and individually expanded to isolate single clones for genomic DNA extraction and PCR verification of successful knock-in (KI) of the SFB-EGFP cassette into 5′-end of first exon of the H2AX gene. The selected H2AX-EGFP 293T cell clone was subsequently infected with lentiviruses encoding tetracycline-inducible SpCas9 (iCas9). After drug selection, individual clones were again expanded and verified for inducible Cas9 expression. The selected clone was subsequently infected with lentivirus encoding a gRNA that targets EGFP. Puromycin-resistant clones ([…], Thermo Fisher Scientific) were then isolated after >7 days for further analysis.
On the technique in general: A flow cytometer gives signals particle by particle.

A further data set deals with XbaI. Description: XbaI in vitro cleavage assay. To be noted: compound 200 μM. In kind it is biochemical. Here is the method: (§1) In vitro cleavage experiments used commercial restriction enzymes (Thermo Fisher Scientific). The restriction enzyme NotI or XbaI (0.1 μL) was mixed with the compounds in a FastDigest buffer (Thermo Fisher Scientific). It was then incubated at room temperature for 10 min, and an ApaI-linearized px458 plasmid was added and reacted at 37 °C for 15 min. The samples were mixed with a DNA loading buffer. The cleavage products were electrophoresed on 1% TAE agarose gel and imaged using a Bio-Rad gel imager.

Data set [2] relates to EGFP expression in uninduced reporter 293T cells. Description: EGFP expression in uninduced reporter 293T cells. To be noted: for effect on EGFP expression in uninduced cells: 40 μM. In kind it is cell-based, human.
Method: The reporter 293T cells were seeded into 96-well plates at a density of 10,000 cells per well and cultured overnight before the addition of DMSO alone or various compounds (in DMSO solution) at appropriate concentrations (0.125–100 μM) with or without 2 μg/mL doxycycline for an additional 72 h of incubation. The cells were then harvested for analysis with the CytoFLEX flow cytometer (Beckman Coulter, Brea, CA, USA) or analyzed by western blot with antibodies as indicated. […] The inhibiting efficiency in reporter 293T cells was calculated using the following equation: E’ = (P2 − P1)/(P0 − P1) × 100%, where E’ is the inhibiting efficiency in reporter 293T cells, and P0, P1, and P2 are the GFP positive cell ratio of the uninduced group, Dox and DMSO treated control group, and Dox and compound treated group, respectively.
Another data set has as its system NotI. Description: NotI in vitro cleavage assay. In kind it is biochemical. To be noted: compound 200 μM. Here is the method: as §1
Data set [3] addresses T1, SpCas9. As to the kind of experiment: SpCas9 in vitro DNA cleavage assay. In kind it is biochemical. Further details: His6 (N); TEV site (N); made in house; host or cells: E. coli BL21 Star (DE3). Here is the method:
The assay was carried out in NEBuffer 3 (New England Biolabs, Ipswich, MA, USA). First, 19.2 μL of the SpCas9–gRNA (58.8 nM) mixture was incubated with 2.4 μL of various compounds (dissolved in DMSO) at desired concentrations (0.1–2 mM) at room temperature for 10 min. Then, 2.4 μL of 3.48 nM ApaI-linearized px458 plasmid was added for further incubation at 37 °C for 60 min. The reaction was terminated by adding 0.5 μL Proteinase K (20 mg/mL) (Invitrogen) and incubation at 55 °C for 15 min. The reaction products were resolved on a 0.7% TAE agarose gel, stained with Gel Red (Biotium, Fremont, CA, USA). Then the products were visualized by Chemidoc XRS plus system (Bio-Rad, Hercules, CA, USA), and band intensities were quantified using ImageJ software (National Institutes of Health developed; Bethesda, MD, USA). The inhibition efficiency in the cleavage assays was calculated using the following equation: E = (C1 − C2)/C1 × 100%, where E is the inhibition efficiency, and C1 and C2 are the cleavage rate of the DMSO group and compound treated group, respectively.
The cleavage rate was calculated using the following equation:C = (B1 + B2)/(B0 + B1 + B2) × 100%, where C is the cleavage rate, B0, B1, and B2 are the band intensities of uncleaved products, upper cleaved products, and lower cleaved products, respectively.

Data set [4] relates to Streptococcus pyogenes Cas9 (SpCas9). To be noted: inhibits SpCas9 by blocking its binding to DNA; ref [33]; cited from earlier work.

T1 sequence (Q99ZW2 whole entry): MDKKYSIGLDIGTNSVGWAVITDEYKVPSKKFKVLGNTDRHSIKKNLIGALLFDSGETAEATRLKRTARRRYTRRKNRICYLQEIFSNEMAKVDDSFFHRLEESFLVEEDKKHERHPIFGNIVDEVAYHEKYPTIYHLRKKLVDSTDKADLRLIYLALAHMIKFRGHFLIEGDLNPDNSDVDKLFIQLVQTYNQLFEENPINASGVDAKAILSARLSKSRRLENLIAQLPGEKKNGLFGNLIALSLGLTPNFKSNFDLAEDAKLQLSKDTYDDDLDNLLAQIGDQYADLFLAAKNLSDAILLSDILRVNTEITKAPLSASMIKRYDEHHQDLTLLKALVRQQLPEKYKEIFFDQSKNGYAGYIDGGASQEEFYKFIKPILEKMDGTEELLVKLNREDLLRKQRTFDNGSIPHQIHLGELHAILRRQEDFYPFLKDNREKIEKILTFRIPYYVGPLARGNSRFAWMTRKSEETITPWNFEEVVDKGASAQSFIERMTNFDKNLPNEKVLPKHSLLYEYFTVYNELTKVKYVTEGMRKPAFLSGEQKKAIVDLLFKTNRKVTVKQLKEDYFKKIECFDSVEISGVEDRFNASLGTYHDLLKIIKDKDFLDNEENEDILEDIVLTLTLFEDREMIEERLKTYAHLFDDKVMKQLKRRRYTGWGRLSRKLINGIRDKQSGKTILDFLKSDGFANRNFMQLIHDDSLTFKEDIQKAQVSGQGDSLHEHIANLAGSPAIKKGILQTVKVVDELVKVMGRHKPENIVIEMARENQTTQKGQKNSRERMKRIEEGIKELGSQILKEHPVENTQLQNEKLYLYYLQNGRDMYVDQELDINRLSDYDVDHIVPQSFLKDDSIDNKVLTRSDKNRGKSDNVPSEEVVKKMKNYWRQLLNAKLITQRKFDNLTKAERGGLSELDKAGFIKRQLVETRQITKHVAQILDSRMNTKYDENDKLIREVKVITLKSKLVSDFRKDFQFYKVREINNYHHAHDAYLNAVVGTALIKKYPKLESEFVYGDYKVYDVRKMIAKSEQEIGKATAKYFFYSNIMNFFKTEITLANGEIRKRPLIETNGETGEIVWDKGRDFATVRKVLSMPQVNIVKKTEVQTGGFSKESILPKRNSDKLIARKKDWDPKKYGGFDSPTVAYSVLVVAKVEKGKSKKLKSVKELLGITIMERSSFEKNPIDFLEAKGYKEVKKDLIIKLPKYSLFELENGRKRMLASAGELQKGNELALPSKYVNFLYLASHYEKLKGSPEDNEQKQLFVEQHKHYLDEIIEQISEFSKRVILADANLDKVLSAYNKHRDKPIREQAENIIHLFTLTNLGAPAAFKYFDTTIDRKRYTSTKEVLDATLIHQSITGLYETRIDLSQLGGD

Regarding `COc1cc(Cl)ccc1N=NC1C(=O)N(c2ccccc2)N=C1C` (stereo not drawn) [SP28], the “SpCas9 inhibition in reporter cells” value on SpCas9 [1] (40 μM, Dox 2 μg/mL, 72 h) is “less than 50%”.

For the compound `CCCCOC(=O)c1ccc(NN=c2c(=O)c3ccccc3c2=O)cc1` [SP11], on SpCas9 [1] (40 μM, Dox 2 μg/mL, 72 h), the “SpCas9 inhibition in reporter cells” value is on record as “less than 50%”.

As to `COc1ccc(C(=O)Oc2ccccc2/C=N\Nc2ccc([N+](=O)[O-])cc2)cc1` [SP8], the “SpCas9 inhibition in reporter cells” value at SpCas9 [1] (40 μM, Dox 2 μg/mL, 72 h) is “less than 50%”.

For the compound `O=C1CCCC/C1=N\Nc1ccc(OCc2ccccc2)cc1` [SP19], the “SpCas9 inhibition in reporter cells” value at SpCas9 [1] (40 μM, Dox 2 μg/mL, 72 h) is recorded as “less than 50%”.

For the compound “1-(2-(4-nitrophenyl) hydrazono)-4-bromo-acetophenone [C12]”, in the data set on XbaI, the “activity of XbaI” value is listed as “not affected”. In addition, in data set [2] (100 μM, reporter cells, no Dox), the “effect on EGFP expression in the absence of Dox induction” value was “no effects”. For the same compound, in the data set with NotI, the “activity of NotI” value is “not affected”. Moreover, the “efficiency of SpCas9 inhibition in reporter cells” value on SpCas9 [1] (100 μM, Dox 2 μg/mL, 72 h) was 17.1%. The “inhibition rate, in vitro SpCas9 cleavage” value against SpCas9 [3] (compound 200 μM, SpCas9–gRNA 58.8 nM, linearized plasmid 3.48 nM) is recorded as 84%.

Take `CC1=NN(c2ccccc2)C(=O)C1N=Nc1nc2ccccc2s1` (stereo not drawn) [SP29]: in data set [2] (uninduced), the “effect on EGFP expression in uninduced cells” value (shortened to “effect … in uninduced cells”) was “reduce EGFP expression (albeit slightly)”. Moreover, on SpCas9 [1] (10 μM, Dox 2 μg/mL, 72 h), the “SpCas9 inhibition in reporter cells” value amounted to 50%.

As to `O=C1CCCC/C1=N/Nc1ccc(N2CCCCC2)cc1` [SP5], the “SpCas9 inhibition in reporter cells” value on SpCas9 [1] (40 μM, Dox 2 μg/mL, 72 h) is recorded as “less than 50%”.

With `COc1ccc(C(=O)/C(C#N)=N/Nc2ccccc2[N+](=O)[O-])cc1` [SP14], the “effect … in uninduced cells” value in data set [2] (uninduced) is listed as “reduce EGFP expression (albeit slightly)”. For the same compound, the “SpCas9 inhibition in reporter cells” value on SpCas9 [1] (10 μM, Dox 2 μg/mL, 72 h) stood at 50%.

As to `CCC(=O)C=NNc1ccc([N+](=O)[O-])cc1` [C9, 1-(2-(4-nitrophenyl) hydrazono)butanone], the melting point (commonly the temperature of the solid-liquid transition) lay within 190.3 to 191.7 °C.

Turning to `Cc1ccc(C(=O)/C(C#N)=N\Nc2ccc([N+](=O)[O-])cc2)cc1` [SP15], the “effect … in uninduced cells” value in data set [2] (uninduced) is listed as “reduce EGFP expression (albeit slightly)”. For the same compound, at SpCas9 [1] (10 μM, Dox 2 μg/mL, 72 h), the “SpCas9 inhibition in reporter cells” value was determined as 50%.

For `Cc1cccc(N/N=C(/C#N)C(=O)c2ccc(Br)cc2)c1` [SP12], the “SpCas9 inhibition in reporter cells” value is reported as “less than 50%” on SpCas9 [1] (10 μM, Dox 2 μg/mL, 72 h) and over 50% at SpCas9 [1] (40 μM, Dox 2 μg/mL, 72 h).

For `O=C(C(=NNc1ccc([N+](=O)[O-])cc1)n1cncn1)c1ccc(F)cc1F` [C12d, 1-(2,4-difluorophenyl)-2-(2-(4-nitrophenyl)hydrazono)-2-(1H-1,2,4-triazol-1-yl)ethanone], the “inhibitory activity in in vitro SpCas9 cleavage (in words)” value (shortened to “inhibitory activity”) at SpCas9 [3] (compound 200 μM) is listed as “weakly inhibited”.

As to `O=C(Oc1ccc(/C=N/Nc2ccccc2)cc1)c1cc([N+](=O)[O-])cc([N+](=O)[O-])c1` [SP32], the “SpCas9 inhibition in reporter cells” value on SpCas9 [1] (10 μM, Dox 2 μg/mL, 72 h) was “less than 50%”; at SpCas9 [1] (40 μM, Dox 2 μg/mL, 72 h), over 50%.

With `Cc1nc2ccc(N=NC3=C(O)CCCC3=O)cc2s1` [SP33], the “SpCas9 inhibition in reporter cells” value at SpCas9 [1] (40 μM, Dox 2 μg/mL, 72 h) was “less than 50%”.

On to `O=C1CCCC/C1=N\Nc1ccc([N+](=O)[O-])cc1` [SP6], for which the “SpCas9 inhibition in reporter cells” value on SpCas9 [1] (40 μM, Dox 2 μg/mL, 72 h) is on record as “less than 50%”.

`O=C1CCCC/C1=N/Nc1ccc(OC2CCCCC2)cc1` [SP9]: the “SpCas9 inhibition in reporter cells” value at SpCas9 [1] (10 μM, Dox 2 μg/mL, 72 h) was “less than 50%”; on SpCas9 [1] (40 μM, Dox 2 μg/mL, 72 h), over 50%.

As for BRD0539, the IC50 (in general, the midpoint of a concentration-inhibition curve) in data set [4] is 22 µM.

In the case of `CCOC(=O)c1oc2c(c1C)/C(=N\Nc1ccc([N+](=O)[O-])cc1)CCC2` [SP34], the “SpCas9 inhibition in reporter cells” value on SpCas9 [1] (40 μM, Dox 2 μg/mL, 72 h) was “less than 50%”.

Regarding `CC1(C)CC(=O)C(N=Nc2ccc3ncsc3c2)=C(O)C1` [SP36], the “SpCas9 inhibition in reporter cells” value at SpCas9 [1] (40 μM, Dox 2 μg/mL, 72 h) is recorded as “less than 50%”.

As for `O=C(C=NNc1ccc(Cl)cc1)c1ccc(Br)cc1` [C12b, 1-(4-bromophenyl)-2-(2-(4-chlorophenyl)hydrazono)ethanone], the melting point fell in the range of 235.2 to 237.2 °C. The “inhibitory activity” value against SpCas9 [3] (compound 200 μM) is reported as “strong inhibitory activities”. Further, the inhibition – broadly, the drop in the measured response relative to a control, in per cent – at 200 µM on SpCas9 [3] (read-out: inhibition rate, in vitro SpCas9 cleavage) was determined as 89%.

With `O=C(C=NNc1cc([N+](=O)[O-])ccc1O)c1ccc(Br)cc1` [C12c, 1-(4-bromophenyl)-2-(2-(2-hydroxy-5-nitrophenyl)hydrazono)ethanone], the melting point was in the range of 246.6 to 247.2 °C. Further, the “effect on EGFP expression in uninduced reporter 293T cells” value in data set [2] (uninduced, concentration not given) was “did not negatively affect”. On SpCas9 [1] (HEK-293T, read-out: SpCas9 inhibition in reporter cells), the inhibition at 40 µM is about 50%. Further, on SpCas9 [3] (compound 200 μM), the “inhibitory activity” value is listed as “weakly inhibited”.

The values are drawn from PMC9688475, “Identification and Analysis of Small Molecule Inhibitors of CRISPR-Cas9 in Human Cells” (Cells, 2022).
